Test results reported in patent US12344610B2, “APOL1 inhibitors and methods of use” (Maze Therapeutics, Inc., priority 2022, dated 2025).

Experiments:
Assay type in all cases: cell-based
[1] = system: HEK293 clonal cell line overexpressing APOL1 G1; experiment: APOL1 G1 HEK293 cell rescue assay (Example B3); conditions: geometric mean of at least 2 runs, † = single run, ¥ = concentration at 50% rescue estimated (no sigmoidal curve)
Procedure, shortened: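 Rescue of cell death caused by APOL1 G1 overexpression was measured in a clonal HEK293 line. Compounds were tested in duplicate on one plate, and EC50s were geometric means across at least two runs on different days. Some values are estimated 50%-rescue concentrations where curve fitting failed.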

[2] = system: human immortalized podocytes inducibly expressing APOL1 G2; experiment: APOL1 G2 podocyte cell rescue assay (Example B4); conditions: differentiated human podocytes, doxycycline-induced APOL1 G2, CellTiter-Glo, geometric mean of at least 2 runs, † = single run
Protocol: APOL1 G2 human immortalized podocyte viability assay for measurement of cytotoxicity reversal by compound (APOL1 G2 podocyte cell rescue assay).
Cell Handling. The hTERT-immortalized kidney podocyte cell line was procured from the laboratory of Dr. Moin Saleem at the University of Bristol, UK (Nephrology 17 (2012) 525-531; doi:10.1111/j.1440-1797.2012.01619.x; herein incorporated by reference in its entirety). Parental and engineered cell lines were cultured in RPMI 1640 media (Gibco, 11875093) with 10% Tet System Approved FBS (Takara, 631101). The engineered cell line was maintained under selection (2.5 μg/mL puromycin). Cell lines were maintained and engineered at 33° C. Cell cultures were transferred to 37° C. for 10 to 14 days to initiate differentiation (Nephrology 17 (2012) 525-531; doi:10.1111/j.1440-1797.2012.01619.x; herein incorporated by reference in its entirety). During this time, media was refreshed every 3 days. After differentiation, cells engineered to inducibly express APOL1 G2 were used in the podocyte cell rescue assay.
Cell Line Engineering. The APOL1 G2 coding sequence was cloned into the pLVX-TetOne-Puro vector and verified by sequencing (Genscript Biotech). This construct was designed to have a C-terminal HiBiT tag. Lentiviral packaging of the vector was conducted using the Lenti-X Packaging Single Shots (VSVG) system according to manufacturer instructions (Takara Bio, 631275). A stable cell line was generated by transfecting the parental podocyte cell line with the concentrated virus in media with 5 μg/mL polybrene (Sigma, TR-1003-G). Media was changed the following day. 72 hours post transfection, 2.5 μg/mL puromycin (Gibco, A1113803) was added to the cells and cells were maintained in selection media thereafter. This APOL1 G2 stable cellular pool was subjected to a stringent limiting dilution to generate a pure stable clone (Podocyte/pLVX-TetOne APOL1 G2/clone D10) capable of inducible expression of APOL1 G2.
Assay Setup. T175 flasks containing differentiated podocytes engineered to inducibly express APOL1 G2 (Podocyte/pLVX-TetOne APOL1 G2/clone D10) were washed once with 15 mL of DPBS (Thermo Fisher, 14190-144). These flasks were each trypsinized with 3 mL of prewarmed TrypLE Express (Gibco, 12605-010) and incubated at 37° C. with 5% CO2 until cells detached and neutralized with 7 mL of prewarmed assay media (RPMI 1640 media with 10% Tet System Approved FBS, no selection agent). Cells were pooled and the resulting suspension was gently mixed. The cell suspension was counted using a Countess Cell Counting Chamber (Invitrogen) and the cell concentration was adjusted to 240,000 cells/mL using assay media. Next, 25 μL of a 480 ng/mL working stock of doxycycline diluted in assay media was added to an assay ready plate. All experiments were performed in 384-well, white, solid bottom, tissue culture treated plates (Greiner, 781080). The assay ready compound plates were generated with duplicate 8-point compound dilution series that consisted of 3-fold stepwise dilutions (0.4% DMSO final). The plates were centrifuged at 1000 rpm for 1 minute. 25 μL of diluted cell suspension (final cell density=6,000 cells/well) was added to each well. The plates were centrifuged again at 1000 rpm for 1 minute and then incubated in a humidified incubator (37° C. with 5% CO2). After 95 hours, the assay plates were removed from the incubator and allowed to equilibrate to room temperature for 1 hour. CellTiter-Glo® reagent (Promega, G7570) was prepared according to the manufacturer's instructions. 25 μL of CellTiter-Glo® reagent was added to each well. Assay plates were sealed with foil and mixed for 5 minutes on an orbital shaker (500 rpm) to induce cell lysis. Plates were centrifuged at 1000 rpm for 1 minute. 10 minutes after CellTiter-Glo® reagent addition, an Envision plate reader (Perkin Elmer) was used to measure the luminescent signal of each assay plate. Collaborative Drug Discovery software was utilized for graphing data. […]

[3] = system: HEK293 cells overexpressing APOL1 G2; experiment: APOL1 G2 HEK293 cell rescue assay (reversal of cell death caused by overexpression of APOL1); conditions: geometric mean of at least 2 assay runs, † = single assay run
Procedure, shortened: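 Each compound tested in duplicate wells on one plate per run, with values usually the geometric mean across at least two runs on different days, occasionally from one run only. Read-out: concentration giving half-maximal rescue of APOL1 G2 overexpression-induced death of HEK293 cells.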

[4] = Homo sapiens, HEK293, HEK293 clonal line overexpressing APOL1 G1
[5] = Homo sapiens, HEK293, HEK293 overexpressing APOL1 G2

| SMILES | EC50 [1, 4] [nM] | EC50 [2] [nM] | EC50 [3, 5] [nM] | EC50 ([1]; HEK293 clonal line overexpressing APOL1 G1) [nM] | EC50 ([3]; HEK293 overexpressing APOL1 G2) [nM] | EC50 ([2]; Homo sapiens) [nM] |
| --- | --- | --- | --- | --- | --- | --- |
| O=C(NC1CCS(=O)(=O)C1)c1ccc(OCCN2CCC3(CC2)C(=O)Nc2ccc(Cl)cc23)cc1F (single isomer, unassigned) [Compound 242, 4-(2-{5-chloro-2-oxo-1,2-dihydrospiro[indole-3,4′-piperidin]-1′-yl}ethoxy)-N-[(3S) or (3R)-1,1-dioxo-1λ^6-thiolan-3-yl]-2-fluorobenzamide] | 316 | 19.7 | 74 | – | – | – |
| O=C(NC1CCS(=O)(=O)C1)c1ccc(OCCN2CCC3(CC2)C(=O)Nc2ccc(Cl)cc23)cc1F (single isomer, unassigned) [Compound 243, 4-(2-{5-chloro-2-oxo-1,2-dihydrospiro[indole-3,4′-piperidin]-1′-yl}ethoxy)-N-[(3R) or (3S)-1,1-dioxo-1λ^6-thiolan-3-yl]-2-fluorobenzamide] | – | 4.11 | – | 208 | 46 | – |
| O=C(NC1CCS(=O)(=O)CC1)c1ccc(OCCN2CCC3(CC2)C(=O)Nc2ccc(Cl)cc23)cc1F [Compound 240, 4-(2-{5-chloro-2-oxo-1,2-dihydrospiro[indole-3,4′-piperidin]-1′-yl}ethoxy)-N-(1,1-dioxo-1λ^6-thian-4-yl)-2-fluorobenzamide] | 282 | – | 52.6 | – | – | 13.9 |
| O=C1Nc2ccc(Cl)cc2C12CCN(CCOc1cnc(CCO)nc1)CC2 [Compound 331, 5-chloro-1′-(2-{[2-(2-hydroxyethyl)pyrimidin-5-yl]oxy}ethyl)-1,2-dihydrospiro[indole-3,4′-piperidin]-2-one] | 440 | – | 166 | – | – | 85.7 |
